pEC50: −log10 of the molar value.
Columns and labels:
DENV-2 16681 strain = assay: microbe, parasite or virus in culture; assay type: cell-based, Dengue virus; settings: for pEC50: DENV-2 16681 eGFP, Vero cells, MOI 0.5, 3 days; for SI: SI=CC50/EC50, DENV-2 antiviral assay
DENV-1 strain TC974#666 = assay: Tetravalent RT-qPCR assay, serotype 1; assay type: cell-based, Dengue virus; settings: RT-qPCR serotype 1 TC974#666, Vero cells
Method: (§1) The antiviral activity of the compounds of the invention was tested against DENV-1 strain TC974#666 (NCPV), DENV-2 strain 16681, DENV-3 strain H87 (NCPV) and DENV-4 strain H241 (NCPV) in a RT-qPCR assay. Therefore, Vero cells were infected with either DENV-1, or -2, or -3, or -4 in the presence or absence of test compounds. At day 3 post-infection, the cells were lysed and cell lysates were used to prepare cDNA of both a viral target (the 3′UTR of DENV; Table 2) and a cellular reference gene (β-actin, Table 2). Subsequently, a duplex real time PCR was performed on a Lightcycler480 instrument. The generated Cp value is inversely proportional to the amount of RNA expression of these targets. Inhibition of DENV replication by a test compound results in a shift of Cp's for the 3′UTR gene. On the other hand, if a test compound is toxic to the cells, a similar effect on β-actin expression will be observed. The comparative ΔΔCp method is used to calculate ECs50, which is based on the relative gene expression of the target gene (3′UTR) normalized with the cellular housekeeping gene (β-actin). In addition, CC50 values are determined based on the Cp values acquired for the housekeeping gene β-actin.
(§2) The culture medium consisted of minimal essential medium supplemented with 2% of heat-inactivated fetal calf serum, 0.04% gentamycin (50 mg/mL) and 2 mM of L-glutamine. Vero cells, obtained from ECACC, were suspended in culture medium and 75 μL/well was added in 96-well plates (10000 cells/well), which already contain the antiviral compounds. […] In addition, each plate contains wells which are assigned as virus controls (containing cells and virus in the absence of compound) and cell controls (containing cells in the absence of virus and compound). Once the cells were added in the plates, the plates were incubated in a fully humidified incubator (37° C., 5% CO2) until the next day. Dengue viruses serotype-1, 2, 3 and 4 were diluted in order to obtain a Cp of ˜22-24 in the assay. Therefore, 25 μL of virus suspension was added to all the wells containing test compound and to the wells assigned as virus control. In parallel, 25 μL of culture medium was added to the cell controls. Next, the plates were incubated for 3 days in a fully humidified incubator (37° C., 5% CO2). After 3 days, the supernatant was removed from the wells and the cells were washed twice with ice-cold PBS (˜100 μL). The cell pellets within the 96-well plates were stored at −80° C. for at least 1 day. Next, RNA was extracted using the Cells-to-CT™ lysis kit, according to the manufacturer's guideline (Life Technologies). The cell lysates can be stored at −80C or immediately used in the reverse transcription step.
(§3) In preparation of the reverse transcription step, mix A (table 3A) was prepared and 7.57 μL/well was dispensed in a 96-well plate. After addition of 5 μL of the cell lysates, a five minute denaturation step at 75° C. was performed (table 3B). Afterwards, 7.43 μL of mix B was added (table 3C) and the reverse transcription step was initiated (table 3D) to generate cDNA.
(§4) Finally, a RT-qPCR mix was prepared, mix C (table 4A), and 22.02 μL/well was dispensed in 96-well LightCycler qPCR plates to which 3 μL of cDNA was added and the qPCR was performed according to the conditions in table 4B on a LightCycler 480.
(§5) Using the LightCycler software and an in-house LIMS system, dose response curves for each compound were calculated and the half maximal effective concentration (EC50) and the half maximal cytotoxic concentration (CC50) were determined (Tables 5-8).

DENV-2 strain 16681 = assay: Tetravalent RT-qPCR assay, serotype 2; assay type: cell-based, Dengue virus; settings: RT-qPCR serotype 2 16681, Vero cells
Method: as §1, §2, §3, §4, §5

DENV-3 strain H87 = assay: Tetravalent RT-qPCR assay, serotype 3; assay type: cell-based, Dengue virus; settings: RT-qPCR serotype 3 H87, Vero cells
Method: as §1, §2, §3, §4, §5

DENV-4 strain H241 = assay: Tetravalent RT-qPCR assay, serotype 4; assay type: cell-based, Dengue virus; settings: RT-qPCR serotype 4 H241, Vero cells
Method: as §1, §2, §3, §4, §5

Vero cells = settings: African green monkey

Compound | pEC50 (DENV-2 16681 strain) | SI (DENV-2 16681 strain) | pEC50 (DENV-1 strain TC974#666) | pEC50 (DENV-2 strain 16681) | pEC50 (DENV-3 strain H87) | pEC50 (DENV-4 strain H241) | CC50 (Vero cells) [nM] | pEC50 (DENV-1 strain TC974#666; Dengue virus, DENV1, Vero) | pEC50 (DENV-2 strain 16681; Dengue virus, DENV2, Vero) | pEC50 (DENV-3 strain H87; Dengue virus, DENV3, Vero) | pEC50 (DENV-4 strain H241; Dengue virus, DENV4, Vero)
COc1cc(NC(C(=O)N2CCc3ccc(OC(F)(F)F)cc32)c2ccc(Cl)cc2)cc(OCCC(C)C(=O)O)c1 (single isomer, unassigned) [Compound 1D] | 9.64 | 57700 | 9.57 | 9.64 | 8.47 | 7.62 | 12000 | – | – | – | –
COc1cc(NC(C(=O)N2CCc3ccc(OC(F)(F)F)cc32)c2ccc(Cl)cc2)cc(OCC(C)CC(=O)O)c1 (single isomer, unassigned) [Compound 4D] | 9.77 | 81200 | 9.64 | 9.89 | 8.64 | 7.59 | 13000 | – | – | – | –
COc1cc(NC(C(=O)N2CCc3ccc(OC(F)(F)F)cc32)c2ccc(Cl)cc2)cc(OC23CC(C(=O)O)(C2)C3)c1 (single isomer, unassigned) [Compound 9B] | 9.41 | 32500 | – | – | – | – | 12000 | 9.09 | 9.30 | 8.10 | 7.44
COc1cc(NC(C(=O)N2CCc3ccc(OC(F)(F)F)cc32)c2ccc(Cl)cc2)cc(OCCC(=O)O)c1 (single isomer, unassigned) [Compound 12B] | 9.16 | 21500 | – | – | – | – | 14000 | 9.33 | 9.28 | 8.33 | 7.41
COc1cc(CCCC(=O)O)cc(NC(C(=O)N2CCc3ccc(OC(F)(F)F)cc32)c2ccc(Cl)cc2)c1 (single isomer, unassigned) [Compound 15B] | 9.35 | 24900 | – | – | – | – | 12000 | 9.62 | 9.64 | 8.55 | 7.46
COc1cc(NC(C(=O)N2CCc3ccc(OC(F)(F)F)cc32)c2ccc(Cl)cc2OC)cc(OCCC(C)C(=O)O)c1 (single isomer, unassigned) [Compound 17C] | 9.64 | 39300 | – | – | – | – | 12000 | 9.72 | 9.96 | 8.44 | 7.80
COc1cc(NC(C(=O)N2CCc3ccc(OC(F)(F)F)cc32)c2ccc(Cl)cc2OC)cc(OCCC(C)C(=O)O)c1 (single isomer, unassigned) [Compound 17D] | 9.92 | >9720 | 9.68 | 10.00 | 8.57 | 7.82 | 14000 | – | – | – | –
COc1cc(NC(C(=O)N2CCc3ccc(OC(F)(F)F)cc32)c2ccc(Cl)cc2OC)cc(OCCC(C)(C)C(=O)O)c1 (single isomer, unassigned) [Compound 18B] | 9.55 | 62700 | – | – | – | – | 12000 | 9.26 | 9.47 | 8.37 | 7.48
COc1cc(NC(C(=O)N2CCc3cc(OC)c(C(F)(F)F)cc32)c2ccc(Cl)cc2)cc(OCCC(C)(C)C(=O)O)c1 (single isomer, unassigned) [Compound 21B] | 9.49 | 45200 | – | – | – | – | 12000 | 9.00 | 9.80 | 8.19 | 7.32
COc1cc(NC(C(=O)N2CCc3cc(F)c(OC(F)(F)F)cc32)c2ccc(Cl)cc2)cc(OC2CC(C(=O)O)C2)c1 (single isomer, unassigned) [Compound 27B] | 10.66 | >205482 | – | – | – | – | 13000 | 10.89 | 10.85 | 10.04 | 9.09
COc1cc(NC(C(=O)N2CCc3cc(OC)c(Cl)cc32)c2ccc(Cl)cc2)cc(OC2CC(C(=O)O)C2)c1 (single isomer, unassigned) [Compound 32B] | 10.09 | >230623 | – | – | – | – | 14000 | 9.96 | 10.48 | 9.24 | 8.00
COc1cc(NC2CC(C(=O)O)C2)cc(NC(C(=O)N2CCc3ccc(OC(F)(F)F)cc32)c2ccc(Cl)cc2)c1 (single isomer, unassigned) [Compound 33C] | 8.49 | 5930 | 9.01 | – | 7.96 | 6.47 | 19000 | – | 9.00 | – | –
COc1cc(NC2CC(C(=O)O)C2)cc(NC(C(=O)N2CCc3ccc(OC(F)(F)F)cc32)c2ccc(Cl)cc2)c1 (single isomer, unassigned) [Compound 33D] | 9.28 | 39000 | 9.32 | 9.18 | 8.64 | 7.66 | 18000 | – | – | – | –
COc1cc(NC(C(=O)N2CCc3ccc(OC(F)(F)F)cc32)c2ccc(Cl)cc2)cc(OCC2CC2C(=O)O)c1 (stereo not shown) [Compound 6AB] | 10.80 | >199223 | 10.66 | 10.77 | 9.89 | 8.54 | 12000 | – | – | – | –
COc1cc(NC(C(=O)N2CCc3ccc(OC(F)(F)F)cc32)c2ccc(Cl)cc2)cc(OCC2CC2C(=O)O)c1 (stereo not shown) [Compound 6BB] | 9.74 | 83800 | 9.89 | 9.92 | 8.80 | 7.70 | 12000 | – | – | – | –
COc1cc(NC(C(=O)N2CCc3ccc(OC(F)(F)F)cc32)c2ccc(Cl)cc2)cc(OC2CC(C(=O)O)C2)c1 (stereo not shown) [Compound 7B] | 9.92 | 121027 | 9.82 | 9.92 | 8.74 | 7.89 | 13000 | – | – | – | –

— patent publication US11407715B2, “Substituted indoline derivatives as dengue viral replication inhibitors” (JANSSEN PHARMACEUTICALS, INC., priority 2017, dated 2022)
